This passage reports MIC and melting point results from patent US20060142359A1, “Cyclopenta[c]isoxazole-3-amines used as protective agents for materials” (priority 2002, published 2006).

Series [1] has as its system Pseudomonas aeruginosa NCIB 6749. Nature of the series: MIC antibacterial action (Use Example D, analogous to A). In kind it is cell-based. Particulars: NCIB6749, 72 h. Here is the method: (§1) A defined Landy Agar was admixed with active compounds according to the invention in concentrations of […]. The MIC was determined after 3 days of storage at 28° C. and 60-70% relative atmospheric humidity. The MIC is the lowest concentration of active compound at which there is no colonization by the microbial species used.
Analogously to Use Example A, the minimum inhibitory concentrations (MIC) of active compounds according to the invention were determined. Both on chemically defined medium and on complex medium, the compounds tested had minimum inhibitory concentrations </=100 ppm against Pseudomonas aeruginosa NCIB 6749: […]

A further series concerns Bacillus subtilis. Put plainly: MIC against bacteria on Landy agar (Use Example A). In kind it is cell-based. Particulars: 72 h, 3 days at 28° C., 60-70% relative atmospheric humidity, read-out: Minimum inhibitory concentrations Bacillus subtilis. The protocol: as §1
In a further series the test system is Pseudomonas aeroginosa. Put plainly: MIC against bacteria on Landy agar (Use Example A). In kind it is cell-based. Conditions: 72 h, 3 days at 28° C., 60-70% relative atmospheric humidity, read-out: Minimum inhibitory concentrations Pseudomonas aeroginosa. Here is the method:
as §1

The test system of the next series is Aspergillus niger. Put plainly: MIC against fungi on malt extract agar (Use Example B). Conditions: 504 h, 3 weeks at 28° C., 60-70% relative atmospheric humidity, read-out: Minimum inhibitory concentrations Aspergillus niger. In kind it is cell-based. Here is the method:
(§2) The MIC was determined after 3 weeks of storage at 28° C. and 60-70% relative atmospheric humidity. The MIC is the lowest concentration of active compound at which there is no colonization by the microbial species used.

Another series deals with Chaetomium globosum. The description is as above. In kind it is cell-based. Particulars: 504 h, 3 weeks at 28° C., 60-70% relative atmospheric humidity, read-out: Minimum inhibitory concentrations Chaetomium globosum. Here is the method:
as §2

The test system of a further series is Penicillium brevicaule. Described as above. Format: cell-based. Conditions: 504 h, 3 weeks at 28° C., 60-70% relative atmospheric humidity, read-out: Minimum inhibitory concentrations Penicillium brevicaule. The protocol:
as §2

The subject of another series is Fusarium solani. Put plainly: MIC antifungal action (Use Example C, analogous to B). Conditions: analogously to Use Example B, read-out: minimum inhibitory concentrations (MIC) Fusarium solani. Format: cell-based. The protocol:
(§3) An agar which had been prepared using malt extract was admixed with active compounds according to the invention in concentrations of from 0.1 mg/l to 5000 mg/l. The MIC was determined after 3 weeks of storage at 28° C. and 60-70% relative atmospheric humidity. The MIC is the lowest concentration of active compound at which there is no colonization by the microbial species used. Analogously to Use Example B, the minimum inhibitory concentrations (MIC) of active compounds according to the invention were determined. Against fungi such as Fusarium solani, Geotrichum candidum and Rhodotorula rubra the compounds tested had minimum inhibitory concentrations of <500 ppm: […]

Another series relates to Geotrichum candidum. The description is as above. In kind it is cell-based. Particulars: analogously to Use Example B, read-out: minimum inhibitory concentrations (MIC) Geotrichum candidum. The protocol: as §3
The test system of a further series is Rhodotorula rubra. The description is as above. Conditions: analogously to Use Example B, read-out: minimum inhibitory concentrations (MIC) Rhodotorula rubra. In kind it is cell-based. The protocol:
as §3

Setting [2] is: chemically defined medium, read-out: MIC values (chem.def. medium).
Setting [3] is: complex medium, read-out: MIC values (complex medium).

The structures appear in SMILES notation. Converted amounts (≈) assume the structure as drawn. Read-outs that look alike come from different tables or passages of the source. Where only a bound is given, the exact number is not on record here.

Take `CC(C)COC(=O)N(C(=O)OCC(C)C)c1onc2c1CCC2` [Example 37]: the MIC came to 10 µg/mL (≈ 30.8 µM) in series [1] (setting [2]) and 5 µg/mL (≈ 15.4 µM) in series [1] (setting [3]).
Consider `CCCCNC(=S)Nc1onc2c1CCC2` [Example 6, N-butyl-N′-(5,6-dihydro-4H-cyclopenta[c]isoxazol-3-yl)thiourea], for which the melting point was determined as 93 °C.
Same read-out and setting: to `CNc1onc2c1CCC2` [Example 2, N-methyl-5,6-dihydro-4H-cyclopenta[c]isoxazole-3-amine] belongs 52 °C; to `Cc1ccc(NC(=O)Nc2onc3c2CCC3)cc1` [Example 20], 218 °C.
For `O=C(OCc1ccccc1)N(C(=O)OCc1ccccc1)c1onc2c1CCC2` [Example 40], the MIC in series [1] (setting [2]) and in [1] (setting [3]) was 20 µg/mL (≈ 51 µM) in each case.
In turn, `Fc1ccc(/C=N\c2onc3c2CCC3)cc1` [Example 28] showed a melting point of over 260 °C.
On to `O=C(OCC(Cl)(Cl)Cl)N(C(=O)OCC(Cl)(Cl)Cl)c1onc2c1CCC2` [Example 36], for which the MIC in [1] (setting [2]) was found to be 10 µg/mL (≈ 21.1 µM); in series [1] (setting [3]) it was 5 µg/mL (≈ 10.5 µM).
For the compound `Nc1onc2c1CCC2` [Example 1, 5,6-dihydro-4H-cyclopenta[c]isoxazole-3-amine], the MIC in the series with Bacillus subtilis is under 40 µg/mL; with Pseudomonas aeroginosa it was under 100 µg/mL; in the series on Aspergillus niger, under 100 µg/mL; in the series on Chaetomium globosum it was under 100 µg/mL; with Penicillium brevicaule, under 100 µg/mL.
As to `S=C(Nc1ccccc1)Nc1onc2c1CCC2` [Example 23], the melting point is 146 °C.
On the same count and under the same terms, to `O=C(Nc1ccc(Cl)cc1)Nc1onc2c1CCC2` [Example 21] belongs 225 °C.
Regarding `C=COC(=O)N(C(=O)OC=C)c1onc2c1CCC2` [Example 38], the MIC in the series on Fusarium solani was determined as 50 µg/mL (≈ 189 µM); with Geotrichum candidum, 100 µg/mL (≈ 378 µM); in the series on Rhodotorula rubra, 100 µg/mL (≈ 378 µM); in series [1] (setting [2]), 50 µg/mL (≈ 189 µM); in [1] (setting [3]) it was 20 µg/mL (≈ 75.7 µM).
For the compound `Cc1ccc(/C=N\c2onc3c2CCC3)cc1` [Example 30], the melting point stood at 238 °C.
On the same count and under the same terms, to `O=C(c1ccco1)N(C(=O)c1ccco1)c1onc2c1CCC2` [Example 17] belongs 150 °C.
Consider `CC(C)S(=O)(=O)Nc1onc2c1CCC2` [Example 24], for which the melting point was 91 °C.
The same measure, in the same setting: to `C(=N/c1onc2c1CCC2)/c1ccccc1` [Example 8, N-(5,6-dihydro-4H-cyclopenta[c]isoxazol-3-yl)-N-(-phenylmethylidene)amine] belongs 166 °C.
Regarding `CCCCC/C=N\c1onc2c1CCC2` [Example 27], the melting point was determined as 125 °C.
`O=C(Nc1onc2c1CCC2)NC1CCCCC1` [Example 19]: the melting point stood at 152 °C. Besides, in the series on Bacillus subtilis, the MIC amounted to 100 µg/mL (≈ 401 µM). The MIC with Pseudomonas aeroginosa stood at 400 µg/mL (≈ 1600 µM).
Regarding `O=C(OCCCl)N(C(=O)OCCCl)c1onc2c1CCC2` [Example 41], the MIC in the series with Fusarium solani was determined as 200 µg/mL (≈ 593 µM); with Geotrichum candidum, 500 µg/mL (≈ 1480 µM); in the series on Rhodotorula rubra, 200 µg/mL (≈ 593 µM); in series [1] (setting [2]), 10 µg/mL (≈ 29.7 µM); in series [1] (setting [3]), 5 µg/mL (≈ 14.8 µM).
As for `C=CCOC(=O)N(C(=O)OCC=C)c1onc2c1CCC2` [Example 43], the MIC in [1] (setting [2]) was 20 µg/mL (≈ 68.4 µM); in [1] (setting [3]), 10 µg/mL (≈ 34.2 µM).
The corresponding values for `CCCCC(CC)COC(=O)N(C(=O)OCC(CC)CCCC)c1onc2c1CCC2` (stereo not drawn) [Example 34] are 100 µg/mL (≈ 229 µM) and 50 µg/mL (≈ 115 µM).
In the case of `C(=N/c1onc2c1CCC2)/c1ccccn1` [Example 33], the melting point amounted to 167 °C.
Still for that read-out and setting: to `Clc1ccc(/C=N\c2onc3c2CCC3)cc1` [Example 29] belongs 190 °C.
For `CCCC(=O)N(C(=O)CCC)c1onc2c1CCC2` [Example 15], the MIC is 100 µg/mL (≈ 378 µM) in the series on Bacillus subtilis; under 100 µg/mL in the series on Pseudomonas aeroginosa; over 400 µg/mL in the series on Aspergillus niger; 100 µg/mL (≈ 378 µM) with Chaetomium globosum; 200 µg/mL (≈ 757 µM) in the series on Penicillium brevicaule.
In the case of `FC(F)(F)c1ccc(/C=N\c2onc3c2CCC3)cc1` [Example 32], the melting point was over 260 °C.
The same measure, in the same setting: to `CC(C)(C)C(=O)Nc1onc2c1CCC2` [Example 3, N-(5,6-dihydro-4H-cyclopenta[c]isoxazol-3-yl)-2,2-dimethylpropanamide] belongs 113 °C; to `CC(C)C(=O)Nc1onc2c1CCC2` [Example 12], 116 °C.
Regarding `O=C(OCCBr)N(C(=O)OCCBr)c1onc2c1CCC2` [Example 42], the MIC with Fusarium solani is 200 µg/mL (≈ 469 µM); with Geotrichum candidum it was 500 µg/mL (≈ 1170 µM); in the series on Rhodotorula rubra it was 500 µg/mL (≈ 1170 µM); in series [1] (setting [2]) it was 10 µg/mL (≈ 23.5 µM); in series [1] (setting [3]), 5 µg/mL (≈ 11.7 µM).
Compound `O=S(=O)(Nc1onc2c1CCC2)c1ccccc1` [Example 7, N-(5,6-dihydro-4H-cyclopenta[c]isoxazol-3-yl)benzenesulfonamide] came in with a melting point of 132 °C. For the same compound, the MIC in the series with Bacillus subtilis was 100 µg/mL (≈ 378 µM). Moreover, in the series with Pseudomonas aeroginosa, the MIC came to 400 µg/mL (≈ 1510 µM).
`O=C(Nc1onc2c1CCC2)C(F)(F)F` [Example 14] displayed a melting point of 118 °C. The MIC with Bacillus subtilis is under 40 µg/mL. The MIC in the series with Pseudomonas aeroginosa is under 100 µg/mL. Also, the MIC with Aspergillus niger amounted to 100 µg/mL (≈ 454 µM). The MIC in the series on Chaetomium globosum was 100 µg/mL (≈ 454 µM). For the same compound, the MIC with Penicillium brevicaule is 100 µg/mL (≈ 454 µM).
For the compound `Cc1ccc(NC(=O)Nc2onc3c2CCC3)c(C)c1` [Example 22], the melting point amounted to 230 °C.
For the compound `C=C(C)OC(=O)N(C(=O)OC(=C)C)c1onc2c1CCC2` [Example 35], the MIC in [1] (setting [2]) and in series [1] (setting [3]) was 10 µg/mL (≈ 34.2 µM) throughout.
With `O=C(Nc1ccccc1)Nc1onc2c1CCC2` [Example 5, N-(5,6-dihydro-4H-cyclopenta[c]isoxazol-3-yl)-N′-phenylurea], the melting point was 202 °C. For the same compound, in the series with Bacillus subtilis, the MIC was under 40 µg/mL. In addition, in the series with Pseudomonas aeroginosa, the MIC is under 100 µg/mL. Further, the MIC in the series on Aspergillus niger was determined as 200 µg/mL (≈ 822 µM). The MIC in the series with Chaetomium globosum stood at 100 µg/mL (≈ 411 µM). Also, the MIC in the series on Penicillium brevicaule turned out to be 100 µg/mL (≈ 411 µM).
Regarding `Cc1ccc(S(=O)(=O)Nc2onc3c2CCC3)cc1` [Example 25], the melting point was determined as 112 °C.
On the same count and under the same terms, to `CC(C)CC(=O)N(C(=O)CC(C)C)c1onc2c1CCC2` [Example 16] belongs 35 °C.
The compound `COc1ccc(/C=N\c2onc3c2CCC3)cc1` [Example 31] gave a melting point of 249 °C.

In general, melting point refers to the temperature of the solid-liquid transition.
